What was measured:
Assay type in all cases: in vivo
kochia (Kochia scoparia) [1] = experiment: Test A preemergence kochia; settings: 0 to 100 scale, 0 no effect, 100 complete control
How it was run: (§1)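 Directed soil spray at planting gives preemergence data; foliar application to one- to two-leaf plants gives postemergence data. Response is visual injury relative to untreated controls about 10 d after treatment, scored 0–100.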

[2] = system: barnyardgrass (Echinochloa crus-galli); experiment: Test A postemergence barnyardgrass; settings: 0 to 100 scale, 0 is no effect, 100 is complete control
How it was run: as §1

[3] = system: wheat (Triticum aestivum); experiment: Test A postemergence wheat; settings: 0 to 100 scale, 0 is no effect, 100 is complete control
How it was run: as §1

[4] = system: ryegrass, Italian (Italian ryegrass, Lolium multiflorum); experiment: Test A postemergence ryegrass, Italian; settings: 0 to 100 scale, 0 is no effect, 100 is complete control
How it was run: as §1

[5] = system: ragweed (common ragweed, Ambrosia elatior); experiment: Test A postemergence ragweed; settings: 0 to 100 scale, 0 is no effect, 100 is complete control
How it was run: as §1

[6] = system: pigweed (Amaranthus retroflexus); experiment: Test A preemergence pigweed; settings: 0 to 100 scale, 0 no effect, 100 complete control
How it was run: as §1

[7] = system: sedge, umbrella (small-flower umbrella sedge, Cyperus difformis); experiment: Test C flooded paddy test sedge, umbrella; settings: Table C, Flood, scale 0 to 100
Source text: (§2) Plant species in the flooded paddy test consisted of rice (Oryza sativa), sedge, umbrella (small-flower umbrella sedge, Cyperus difformis), ducksalad (Heteranthera limosa), and barnyardgrass (Echinochloa crus-galli) grown to the 2-leaf stage for testing. At time of treatment, test pots were flooded to 3 cm above the soil surface, treated by application of test compounds directly to the paddy water, and then maintained at that water depth for the duration of the test. Treated plants and controls were maintained in a greenhouse for 13 to 15 d, after which time all species were compared to controls and visually evaluated. Plant response ratings, summarized in Table C, are based on a scale of 0 to 100 where 0 is no effect and 100 is complete control. A dash (-) response means no test result.

[8] = system: barnyardgrass (Echinochloa crus-galli); experiment: Test A preemergence barnyardgrass; settings: 0 to 100 scale, 0 no effect, 100 complete control
How it was run: as §1

[9] = system: ryegrass, Italian (Italian ryegrass, Lolium multiflorum); experiment: Test A preemergence ryegrass, Italian; settings: 0 to 100 scale, 0 no effect, 100 complete control
How it was run: as §1

[10] = system: foxtail, giant (giant foxtail, Setaria faberii); experiment: Test A postemergence foxtail, giant; settings: 0 to 100 scale, 0 is no effect, 100 is complete control
How it was run: as §1

[11] = system: ducksalad (Heteranthera limosa); experiment: Test B flooded paddy test ducksalad; settings: Table B, Flood, 500 g ai/ha, scale 0 to 100
How it was run: (§3)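 Plants grown to the 2-leaf stage; pots flooded to 3 cm above soil at treatment, compound applied directly into paddy water, depth held throughout. Greenhouse 13 to 15 d, then visual evaluation against untreated controls.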

corn (Zea mays) = experiment: Test A postemergence corn; settings: 0 to 100 scale, 0 is no effect, 100 is complete control
How it was run: as §1

[12] = system: barnyardgrass (Echinochloa crus-galli); experiment: Test C flooded paddy test barnyardgrass; settings: Table C, Flood, scale 0 to 100
Source text: as §2

rice (Oryza sativa) [13] = experiment: Test B flooded paddy test rice; settings: Table B, Flood, 500 g ai/ha, scale 0 to 100
How it was run: as §3

[14] = system: sedge, umbrella (small-flower umbrella sedge, Cyperus difformis); experiment: Test B flooded paddy test sedge, umbrella; settings: Table B, Flood, 500 g ai/ha, scale 0 to 100
How it was run: as §3

[15] = system: pigweed (Amaranthus retroflexus); experiment: Test A postemergence pigweed; settings: 0 to 100 scale, 0 is no effect, 100 is complete control
How it was run: as §1

rice (Oryza sativa) [16] = experiment: Test C flooded paddy test rice; settings: Table C, Flood, scale 0 to 100
Source text: as §2

[17] = system: barnyardgrass (Echinochloa crus-galli); experiment: Test B flooded paddy test barnyardgrass; settings: Table B, Flood, 500 g ai/ha, scale 0 to 100
How it was run: as §3

[18] = system: galium (catchweed bedstraw, Galium aparine); experiment: Test A postemergence galium; settings: 0 to 100 scale, 0 is no effect, 100 is complete control
How it was run: as §1

kochia (Kochia scoparia) [19] = experiment: Test A postemergence kochia; settings: 0 to 100 scale, 0 is no effect, 100 is complete control
How it was run: as §1

[20] = system: blackgrass (Alopecurus myosuroides); experiment: Test A postemergence blackgrass; settings: 0 to 100 scale, 0 is no effect, 100 is complete control
How it was run: as §1

[21] = system: foxtail, giant (giant foxtail, Setaria faberii); experiment: Test A preemergence foxtail, giant; settings: 0 to 100 scale, 0 no effect, 100 complete control
How it was run: as §1

[22] = system: ragweed (common ragweed, Ambrosia elatior); experiment: Test A preemergence ragweed; settings: 0 to 100 scale, 0 no effect, 100 complete control
How it was run: as §1

[23] = system: ducksalad (Heteranthera limosa); experiment: Test C flooded paddy test ducksalad; settings: Table C, Flood, scale 0 to 100
Source text: as §2

SMILES: O=C1NCCC(c2cccc(C(F)(F)F)c2)C1C(=O)Nc1ccc(F)c(F)c1F (racemic) [Compound 28]
- Kochia plant response rating (kochia (Kochia scoparia) [1]; 125 g ai/ha): 20
- Kochia plant response rating (kochia (Kochia scoparia) [1]; 500 g ai/ha): 20
- Plant response rating, Barnyardgrass ([2]; 125 g ai/ha): 60
- Plant response rating, Barnyardgrass ([2]; 500 g ai/ha): 80
- Plant response rating, Wheat ([3]; 125 g ai/ha): 0
- Plant response rating, Wheat ([3]; 500 g ai/ha): 20
- Plant response rating, Ryegrass, Italian ([4]; 125 g ai/ha): 0
- Plant response rating, Ryegrass, Italian ([4]; 500 g ai/ha): 0
- Plant response rating, Ragweed ([5]; 125 g ai/ha): 0
- Plant response rating, Ragweed ([5]; 500 g ai/ha): 0
- Pigweed plant response rating ([6]; 125 g ai/ha): 0
- Pigweed plant response rating ([6]; 500 g ai/ha): 20
- Plant response rating ([7]; 31 g ai/ha): 0
- Plant response rating ([7]; 62 g ai/ha): 0
- Plant response rating ([7]; 125 g ai/ha): 0
- Plant response rating ([7]; 250 g ai/ha): 0
- Barnyardgrass plant response rating ([8]; 125 g ai/ha): 90
- Barnyardgrass plant response rating ([8]; 500 g ai/ha): 90
- Ryegrass, Italian plant response rating ([9]; 125 g ai/ha): 20
- Ryegrass, Italian plant response rating ([9]; 500 g ai/ha): 40
- Plant response rating, Foxtail, Giant ([10]; 125 g ai/ha): 70
- Plant response rating, Foxtail, Giant ([10]; 500 g ai/ha): 90
- Plant response rating [11]: 85
- Plant response rating, Corn (corn (Zea mays); 125 g ai/ha): 30
- Plant response rating, Corn (corn (Zea mays); 500 g ai/ha): 60
- Plant response rating ([12]; 31 g ai/ha): 60
- Plant response rating ([12]; 62 g ai/ha): 65
- Plant response rating ([12]; 125 g ai/ha): 70
- Plant response rating ([12]; 250 g ai/ha): 75
- Plant response rating (rice (Oryza sativa) [13]): 15
- Plant response rating [14]: 0
- Plant response rating, Pigweed ([15]; 125 g ai/ha): 0
- Plant response rating, Pigweed ([15]; 500 g ai/ha): 0
- Plant response rating (rice (Oryza sativa) [16]; 31 g ai/ha): 0
- Plant response rating (rice (Oryza sativa) [16]; 62 g ai/ha): 0
- Plant response rating (rice (Oryza sativa) [16]; 125 g ai/ha): 0
- Plant response rating (rice (Oryza sativa) [16]; 250 g ai/ha): 0
- Plant response rating [17]: 100
- Plant response rating, Galium ([18]; 125 g ai/ha): 0
- Plant response rating, Galium ([18]; 500 g ai/ha): 0
- Plant response rating, Kochia (kochia (Kochia scoparia) [19]; 125 g ai/ha): 0
- Plant response rating, Kochia (kochia (Kochia scoparia) [19]; 500 g ai/ha): 0
- Plant response rating, Blackgrass ([20]; 125 g ai/ha): 0
- Plant response rating, Blackgrass ([20]; 500 g ai/ha): 20
- Foxtail, Giant plant response rating ([21]; 125 g ai/ha): 90
- Foxtail, Giant plant response rating ([21]; 500 g ai/ha): 90
- Ragweed plant response rating ([22]; 125 g ai/ha): 0
- Ragweed plant response rating ([22]; 500 g ai/ha): 0
- Plant response rating ([23]; 31 g ai/ha): 45
- Plant response rating ([23]; 62 g ai/ha): 50
- Plant response rating ([23]; 125 g ai/ha): 60
- Plant response rating ([23]; 250 g ai/ha): 70
